Experimental data as given in PubChem BioAssay (NCI).
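A five-concentration, 48-hour dose response in 96-well plates underlies each endpoint, interpolated linearly between surrounding concentrations. TGI is the concentration that stops growth completely.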

Columns and labels:
Experiment in all cases: DTP human tumour cell line panel, 48 h
MALME-3M melanoma = system: MALME-3M melanoma
UACC-257 melanoma = system: UACC-257 melanoma
HOP-92 NSCLC = system: HOP-92 NSCLC
OVCAR-3 ovarian = system: OVCAR-3 ovarian
LOX IMVI melanoma = system: LOX IMVI melanoma
DMS 114 small cell lung = system: DMS 114 small cell lung
OVCAR-5 ovarian = system: OVCAR-5 ovarian
COLO 205 colon = system: COLO 205 colon
SK-OV-3 ovarian = system: SK-OV-3 ovarian
M19-MEL melanoma = system: M19-MEL melanoma
RXF 393 renal = system: RXF 393 renal
ACHN renal = system: ACHN renal
KM20L2 colon = system: KM20L2 colon
HL-60(TB) leukemia = system: HL-60(TB) leukemia
UACC-62 melanoma = system: UACC-62 melanoma
HCC-2998 colon = system: HCC-2998 colon
SK-MEL-28 melanoma = system: SK-MEL-28 melanoma
M14 melanoma = system: M14 melanoma
OVCAR-8 ovarian = system: OVCAR-8 ovarian
XF 498 CNS = system: XF 498 CNS
SF-539 CNS = system: SF-539 CNS
EKVX NSCLC = system: EKVX NSCLC
786-0 renal = system: 786-0 renal
HOP-62 NSCLC = system: HOP-62 NSCLC
UO-31 renal = system: UO-31 renal
HCT-116 colon = system: HCT-116 colon
RPMI-8226 leukemia = system: RPMI-8226 leukemia
DMS 273 small cell lung = system: DMS 273 small cell lung
KM12 colon = system: KM12 colon
DLD-1 colon = system: DLD-1 colon
LXFL 529 NSCLC = system: LXFL 529 NSCLC
IGROV1 ovarian = system: IGROV1 ovarian
SNB-78 CNS = system: SNB-78 CNS
TK-10 renal = system: TK-10 renal
CCRF-CEM leukemia = system: CCRF-CEM leukemia
MOLT-4 leukemia = system: MOLT-4 leukemia
A549 NSCLC = system: A549 NSCLC
SK-MEL-2 melanoma = system: SK-MEL-2 melanoma
SNB-75 CNS = system: SNB-75 CNS
SW-620 colon = system: SW-620 colon
HT29 colon = system: HT29 colon
NCI-H23 lung = system: NCI-H23 lung
U251 CNS = system: U251 CNS
NCI-H460 lung = system: NCI-H460 lung
A498 renal = system: A498 renal
K-562 leukemia = system: K-562 leukemia
NCI-H522 lung = system: NCI-H522 lung
OVCAR-4 ovarian = system: OVCAR-4 ovarian
SF-295 CNS = system: SF-295 CNS
HCT-15 colon = system: HCT-15 colon
SF-268 CNS = system: SF-268 CNS
SK-MEL-5 melanoma = system: SK-MEL-5 melanoma
HOP-18 NSCLC = system: HOP-18 NSCLC
CAKI-1 renal = system: CAKI-1 renal
SN12C renal = system: SN12C renal
NCI-H226 lung = system: NCI-H226 lung
SNB-19 CNS = system: SNB-19 CNS
SR leukemia = system: SR leukemia

Measured: TGI

NC(=O)C12CC3CC(CC(F)(C3)C1)C2
not listed: OVCAR-4 ovarian | SF-295 CNS | HCT-15 colon | SF-268 CNS | SK-MEL-5 melanoma | HOP-18 NSCLC | CAKI-1 renal | SN12C renal | NCI-H226 lung | SNB-19 CNS | SR leukemia
> 100 µM: all other assays above

Cc1cc(N(CCC#N)CCC#N)ccc1N=Nc1ccc(C(=O)O)cc1
not listed: HOP-92 NSCLC | KM20L2 colon | HL-60(TB) leukemia | HCT-116 colon | DLD-1 colon | CCRF-CEM leukemia | NCI-H460 lung | K-562 leukemia | SNB-19 CNS | SR leukemia
> 100 µM: all other assays above

COc1ccc(NC(=O)/C(Cc2cc(=O)oc3cc(O)ccc23)=N\NC(C)(C)C)c(OC)c1
not listed: DMS 114 small cell lung | RXF 393 renal | DMS 273 small cell lung | DLD-1 colon | SNB-75 CNS | HOP-18 NSCLC
> 100 µM: all other assays above

CC1c2c(Cl)nc3ccccc3c2Oc2c1c(Cl)nc1ccccc21
not listed: UACC-62 melanoma | M14 melanoma | XF 498 CNS | OVCAR-4 ovarian | HCT-15 colon | CAKI-1 renal | SN12C renal | NCI-H226 lung | SR leukemia
> 100 µM: all other assays above
